Experimental data taken from article PMC9856199, “Intact Transition Epitope Mapping—Force Differences between Original and Unusual Residues (ITEM-FOUR)” (Biomolecules, 2023).
Peptide text beside a SMILES is read from it.

Columns and labels:
Assay type in all cases: binding
[1] = target: monoclonal anti-hcTn I antibody [MF4] (ab38210 from Abcam); assay: ITEM-FOUR: nanoESI-MS gas-phase dissociation of antibody-peptide immune complexes; settings: for KD m0g#: apparent gas-phase dissociation constant, unitless number; for KD m0g# / kD m0g#: mean charge state, extrapolated to no excess energy; for kD m0g#: apparent gas-phase dissociation rate constant; for ΔGm0g# / ΔHm0g# / TambΔSm0g#: apparent, gas-phase immune complex dissociation; for TambΔSm0g#: Tamb 298 K; for binder group by ITEM-FOUR: grouping by ΔHm0g# and binding behaviour in the gas phase; for Initial [%] (immune complex amount at the lowest applied ∆CV): normalized educt ion intensity at ∆CV 2 V; for Initial [%] (immune complex amount at the lowest applied ∆CV) / Final [%] (immune complex amount at the highest applied ∆CV): antibody:peptide 1:2.2, 200 mM ammonium acetate pH 6.7, averaged from all measurements; for Final [%] (immune complex amount at the highest applied ∆CV): normalized educt ion intensity at ∆CV 80 V; for Slope: slope of tangent along steep part of Boltzmann curve
Description: Starting materials and antibody-peptide complex-containing solutions were prepared as previously described. In brief, an aliquot of 25 µL (50 µg) of the monoclonal anti-hcTn I antibody [MF4] (ab38210 from Abcam, Cambridge, United Kingdom) was placed on a 10K centrifugal filter device (Merck Millipore, Carrigtwohill, Ireland) with 400 µL 200 mM ammonium acetate, pH 6.7. After centrifugation at 13,000 rpm for 7 min in an Eppendorf centrifuge (MiniSpin, Eppendorf, Hamburg, Germany), the flow through was discarded and the filter was filled-up with 450 µL 200 mM ammonium acetate, pH 6.7. This centrifugation/discarding/refilling step was repeated eight times. Afterwards, the filter was placed upside down in a new tube and centrifuged for 5 min at 4500 rpm. Approximately 50 µL of antibody solution were collected (solution 1). […] Synthesized hcTn I peptides (Table 1) were purchased as lyophilized powders (peptides and elephants, Hennigsdorf, Germany) and dissolved in 200 mM ammonium acetate, pH 6.7, to obtain peptide concentrations of ca. 2.0 mg/mL, each. The actual peptide concentrations of individual peptide solutions were determined using the Qubit^TM 2.0 Fluorometer assay. Afterwards, all peptide solutions were diluted 1:100 with 200 mM ammonium acetate, pH 6.7 (solution 2). To obtain immune-complex-containing mixtures, the antibody solution (solution 1) and the peptide solution (solution 2) were mixed to obtain final molar antibody-peptide ratios of 1:2.2 (solution 3). Typically, 4 µL of antibody solution were mixed with the appropriate volume (typically 1–2 µL) of the individual peptide solution. Solutions 3 were incubated at room temperature for at least 1 h.
For each ITEM-FOUR examination, 3 µL of the peptide, antibody, or immune complex-containing solution were loaded into nanoESI capillaries that were pulled and gold coated in house. NanoESI-MS measurements were performed with a Synapt G2-S mass spectrometer (Waters MS-Technologies, Manchester, United Kingdom) with the following settings for ITEM-FOUR measurements: capillary voltage, 1.8 kV; source temperature, 40 °C; source offset voltage, 110 V; sample cone voltage, 110 V; cone gas flow, 100 L/h; trap gas flow, 8.0 mL/min; transfer collision cell voltage, 2 V. Measurements were acquired in positive-ion resolution mode, applying a mass window of m/z 200–8000. This mass range was calibrated using 1 mg/mL sodium iodide dissolved in isopropanol/water (50:50, v/v). The quadrupole analyzer was used with the following settings: M1 = 4000, dwell time, and ramp time 25%; M2 = 5000, dwell time, and ramp time 25%; and M3 = 6000 to block transmission of lower molecular weight ions. The first collision cell (TRAP) was used to dissociate antibody-peptide complexes by increasing the collision cell voltage difference (∆CV) in a stepwise manner every 60 s. The collision cell voltage difference steps were: 2, 4, 6, 8, 12, 16, 20, 30, 40, 50, 60, 70, and 80 V. Measurements were repeated at least twice (up to seven times) per immune complex, generating a total of 32 measurement series. The mass spectrometry proteomics data have been deposited to the ProteomeXchange Consortium via the PRIDE [33] partner repository with the dataset identifier PXD038365.
MassLynx version 4.1 (Waters MS-Technologies) was used for data analysis as described previously. First, the scans of each ∆CV setting encompassing 60 s of recording were combined to generate an average mass spectrum for each ∆CV step. Next, the mass spectra were smoothened in 20 cycles with a window of 10 using the Savitzky-Golay algorithm. The ion intensities of all molecular species and their corresponding charge states (complex ions, complex-released peptides, and antibody fragments) were read after smoothing. A bell-shaped Gaussian curve of the intensities of each molecular species was calculated using Origin 2017 (32-bit) SR2 (OriginLab Corporation, Northampton, MA, USA). […]

[2] = target: monoclonal anti-hcTn I antibody [MF4] (ab38210 from Abcam); assay: Isothermal titration calorimetry of immune complex formation in solution; settings: for ∆H / ∆G: immune complex formation in solution; for ∆H: 298 K; for ∆G: calculated from KA (van´t Hoff equation); for T∆S: T = 298 K, calculated with Gibbs-Helmholtz equation
Description: The monoclonal anti-hcTn I antibody [MF4] (ab38210 from Abcam, Cambridge, United Kingdom) was stored in PBS (0.138 M NaCl; 0.0027 M KCl, pH 7.4 from Sigma-Aldrich, St. Louis, MO, US), pH 7.4, and was used as purchased. The hcTn I peptides 1, 2, 4, 6, 7, and 8 were dissolved in PBS and stock solutions with 0.32 to 0.93 mg/mL peptide concentrations were prepared.
Isothermal titration calorimetry measurements were performed with an Affinity ITC instrument (Waters|TA Instruments, New Castle, DE, USA) at T = 298 K equipped with a 190 µL sample cell and a matching reference cell, AccuShot for precise delivery of the titrant, and a Flex Spin for slow speed stirring (125 rpm), efficient mixing, and highest sensitivity. The anti-hcTn I antibody was placed in the sample cell at 1.95 µM (in PBS). The hcTn I peptides, each at 40 µM (in PBS), were automatically titrated to the antibody in 18–20 steps (2 µL per step). The time between titrations was 200 s to establish a baseline between each injection for accurate heat determination and modeling.
The integrated areas under each injection peak (heat over time) were plotted against the active species’ respective molar ratios ranging from 1:0.4 to 1:6.6. An independent binding model was chosen to fit all the data and directly determine the enthalpy (ΔH) and association constant (KA). Gibbs free energy (ΔG) is calculated from the KA using the van´t Hoff equation. The change in entropy term (ΔS) is calculated applying the Gibbs-Helmholtz equation.

[3] = test system: anti-Histag antibody; assay: nanoESI-MS of peptide mixed with unrelated antibody (specificity control); settings: binary mixture, 200 mM ammonium acetate pH 6.7
Description: Figure S15. Nano-ESI mass spectra of Troponin I peptide 7 (ENREVGDWPKNIDAL) upon incubation with anti-Histag […]
ion signal) and (b) with blocked transmission of low mass ions (< 4800 ) and collision cell voltage differences of 2V and (c) with blocked transmission of low mass ion (< 4800) and collision cell voltage differences of 80V. Charge states are given for […]
Antibody fragment ion signals are visible between m/z 1200 and 2300 in (c). Solvent: 200 mM ammonium acetate, pH 6.7.
(1 picture or pasted object on this page, not shown here)

[4] = ITC in PBS pH 7.4, 298 K, antibody 1.95 µM in cell, peptide 40 µM titrant, independent binding model, unitless number
[5] = ITC in PBS pH 7.4, 298 K, independent binding model, unitless number

KD m0g# [1]	kD m0g# [1]	Kd [2, 4]	KD [2, 4]	binding in solution (in words) ([2]; ITC, PBS pH 7.4, 298 K)	Molecule	ΔGm0g# [1]	ΔHm0g# [1]	TambΔSm0g# [1]	binder group by ITEM-FOUR [1]	Initial [%] (immune complex amount at the lowest applied ∆CV) [1]	Final [%] (immune complex amount at the highest applied ∆CV) [1]	Slope [1]	KA [2, 5]	∆H ([2]; ITC)	∆G ([2]; ITC)	T∆S ([2]; ITC)	binding to anti-hcTn I antibody (in words) ([1]; ITEM analysis of peptide-antibody mixture, molar ratio 2.2:1)	complex formation with anti-Histag antibody (in words) [3]
4.77 × 10^−12 Ø	7.37e+12 s⁻¹	0.243 µM	–	–	CC[C@H](C)[C@H](NC(=O)[C@H](CC(N)=O)NC(=O)[C@H](CCCCN)NC(=O)[C@H](CC(C)C)NC(=O)[C@H](Cc1c[nH]c2ccccc12)NC(=O)[C@H](CC(=O)O)NC(=O)CNC(=O)[C@@H](NC(=O)[C@H](CCC(=O)O)NC(=O)[C@H](CCCNC(=N)N)NC(=O)[C@H](CC(N)=O)NC(=O)[C@@H](N)CCC(=O)O)C(C)C)C(=O)N[C@@H](CC(=O)O)C(=O)N[C@@H](C)C(=O)N[C@@H](CC(C)C)C(=O)O [Peptide 4] (H-ENREVGDWLKNIDAL-OH)	15.44 kcal/mol	-0.538 kcal/mol	-15.97 kcal/mol	strong binders (“strong binders” (group II) with ΔHm0g# values below −2 kJ/mol)	41.60%	23.12%	−0.35 %/V	4.12 × 10^6 Ø	-12.45 kcal/mol	-9.027 kcal/mol	-3.425 kcal/mol	–	–
4.62 × 10^−12 Ø	2.9e+12 s⁻¹	0.411 µM	–	–	CC[C@H](C)[C@H](NC(=O)[C@H](CC(N)=O)NC(=O)[C@H](CCCCN)NC(=O)[C@H](CCCNC(=N)N)NC(=O)[C@H](Cc1c[nH]c2ccccc12)NC(=O)CNC(=O)CNC(=O)[C@@H](NC(=O)[C@H](CCC(=O)O)NC(=O)[C@H](CCCNC(=N)N)NC(=O)[C@H](CC(N)=O)NC(=O)[C@@H](N)CCC(=O)O)C(C)C)C(=O)N[C@@H](CC(=O)O)C(=O)N[C@@H](C)C(=O)N[C@@H](CC(C)C)C(=O)O [Peptide 6] (H-ENREVGGWRKNIDAL-OH)	15.46 kcal/mol	-0.442 kcal/mol	-15.89 kcal/mol	very strong binders (Peptides 1, 2, and 6 are “very strong binders” (group I) as their ΔHm0g# values of the gas-phase dissociation reaction are above −2 kJ/mol)	58.83%	23.33%	−0.75 %/V	2.43 × 10^6 Ø	-10.85 kcal/mol	-8.721 kcal/mol	-2.13 kcal/mol	–	–
–	–	–	n.b.	did not bind in solution	ENREVGDWPKNIDAL [Peptide 7]	–	–	–	weak and unorthodox binder	15.37%	5.90%	–	n.b.	n.b.	n.b.	n.b.	bound by the paratope in an unorthodox fashion	no complex formation was detected
